Biological target: Tryptase (Homo sapiens, UniProt Q9BZJ3+Q15661+Q9NRR2)
Assay: Compound was tested for inhibition of human mast cell tryptase
Format: protein assay

Compound	IC50 [µM]
O=C(CCCC(=O)OCN1C(=O)c2ccccc2S1(=O)=O)NCc1ccc(Cl)c(Cl)c1	0.23
COc1ccc(CNC(=O)CCCC(=O)OCN2C(=O)c3ccccc3S2(=O)=O)cc1	0.43
